Legend:
[1] = target: Histamine H3 receptor (Homo sapiens, UniProt Q9Y5N1)
[2] = target: T1, Alpha-1A adrenergic receptor (Homo sapiens, UniProt P35348); format: functional, cell-based
T1 sequence (P35348 whole entry): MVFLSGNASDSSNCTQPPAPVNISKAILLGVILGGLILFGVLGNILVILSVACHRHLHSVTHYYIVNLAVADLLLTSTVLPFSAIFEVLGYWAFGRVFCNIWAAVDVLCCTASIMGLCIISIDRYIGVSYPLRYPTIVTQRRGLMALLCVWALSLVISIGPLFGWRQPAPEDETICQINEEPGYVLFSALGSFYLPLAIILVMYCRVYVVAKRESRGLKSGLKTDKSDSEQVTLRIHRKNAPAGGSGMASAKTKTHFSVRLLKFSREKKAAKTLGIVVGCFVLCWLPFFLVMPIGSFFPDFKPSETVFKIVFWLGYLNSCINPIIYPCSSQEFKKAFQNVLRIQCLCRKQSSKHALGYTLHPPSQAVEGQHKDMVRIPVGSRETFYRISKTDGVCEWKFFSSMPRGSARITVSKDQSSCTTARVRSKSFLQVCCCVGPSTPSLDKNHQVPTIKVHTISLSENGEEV

[3] = target: D(1A) dopamine receptor (Homo sapiens, UniProt P21728)
[4] = target: T2, 5-hydroxytryptamine receptor 1A (Homo sapiens, UniProt P08908)
T2 sequence (P08908 whole entry): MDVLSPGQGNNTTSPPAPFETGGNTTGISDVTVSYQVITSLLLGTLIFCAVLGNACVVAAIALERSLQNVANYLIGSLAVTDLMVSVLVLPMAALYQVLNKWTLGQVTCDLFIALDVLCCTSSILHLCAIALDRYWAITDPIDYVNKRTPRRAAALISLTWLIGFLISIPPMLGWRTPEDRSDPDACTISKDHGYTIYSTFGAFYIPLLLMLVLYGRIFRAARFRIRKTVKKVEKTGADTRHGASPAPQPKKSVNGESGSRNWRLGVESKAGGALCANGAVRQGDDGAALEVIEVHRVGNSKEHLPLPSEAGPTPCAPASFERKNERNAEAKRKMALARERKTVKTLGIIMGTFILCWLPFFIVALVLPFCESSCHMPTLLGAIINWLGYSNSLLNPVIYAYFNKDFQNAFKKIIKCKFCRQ

[5] = target: T3, Progesterone receptor (Homo sapiens, UniProt P06401)
T3 sequence (P06401 whole entry): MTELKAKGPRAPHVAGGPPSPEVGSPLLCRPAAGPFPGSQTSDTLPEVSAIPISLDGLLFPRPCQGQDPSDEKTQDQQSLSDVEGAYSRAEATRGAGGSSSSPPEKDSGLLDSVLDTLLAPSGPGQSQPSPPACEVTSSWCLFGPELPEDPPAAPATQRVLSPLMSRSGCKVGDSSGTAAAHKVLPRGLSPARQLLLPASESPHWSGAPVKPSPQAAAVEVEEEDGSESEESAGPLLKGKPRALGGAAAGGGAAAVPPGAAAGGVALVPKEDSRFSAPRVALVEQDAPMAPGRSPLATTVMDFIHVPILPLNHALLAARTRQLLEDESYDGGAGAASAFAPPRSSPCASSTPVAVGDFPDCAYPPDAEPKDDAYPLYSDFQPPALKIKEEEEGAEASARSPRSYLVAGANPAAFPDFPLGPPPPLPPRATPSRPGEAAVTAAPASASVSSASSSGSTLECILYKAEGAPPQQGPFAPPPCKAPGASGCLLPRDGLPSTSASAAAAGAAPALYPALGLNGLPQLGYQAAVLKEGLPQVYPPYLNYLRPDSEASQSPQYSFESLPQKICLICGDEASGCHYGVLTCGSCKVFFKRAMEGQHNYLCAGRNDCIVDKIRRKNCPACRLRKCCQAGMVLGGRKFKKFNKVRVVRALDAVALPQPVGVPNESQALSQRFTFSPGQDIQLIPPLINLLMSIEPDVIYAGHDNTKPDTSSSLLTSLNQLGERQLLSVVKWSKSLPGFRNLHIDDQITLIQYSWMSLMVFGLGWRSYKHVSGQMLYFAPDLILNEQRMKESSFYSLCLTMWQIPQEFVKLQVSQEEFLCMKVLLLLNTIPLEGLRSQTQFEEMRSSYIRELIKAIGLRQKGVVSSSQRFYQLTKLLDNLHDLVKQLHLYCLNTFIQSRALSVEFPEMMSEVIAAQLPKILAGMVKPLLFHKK

[6] = target: Sodium-dependent noradrenaline transporter (Homo sapiens, UniProt P23975)
[7] = target: Sodium-dependent serotonin transporter (Homo sapiens, UniProt P31645)
[8] = target: T4, Muscarinic acetylcholine receptor M2 (Homo sapiens, UniProt P08172)
T4 sequence (P08172 whole entry): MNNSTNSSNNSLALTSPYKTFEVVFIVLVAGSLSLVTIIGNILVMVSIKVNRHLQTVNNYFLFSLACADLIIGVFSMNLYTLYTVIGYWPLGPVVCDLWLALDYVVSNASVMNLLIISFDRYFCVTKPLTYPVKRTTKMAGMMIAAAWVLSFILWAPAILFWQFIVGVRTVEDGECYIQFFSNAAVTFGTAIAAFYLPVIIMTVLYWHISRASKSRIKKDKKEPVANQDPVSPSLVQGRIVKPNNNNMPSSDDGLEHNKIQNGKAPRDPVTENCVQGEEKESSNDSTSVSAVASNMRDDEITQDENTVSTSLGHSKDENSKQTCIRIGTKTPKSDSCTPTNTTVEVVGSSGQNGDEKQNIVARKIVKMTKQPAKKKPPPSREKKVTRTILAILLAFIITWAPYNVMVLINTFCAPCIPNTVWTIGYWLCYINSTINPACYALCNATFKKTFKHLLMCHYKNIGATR

[9] = target: T5, Alpha-2A adrenergic receptor (Homo sapiens, UniProt P08913)
T5 sequence (P08913 whole entry): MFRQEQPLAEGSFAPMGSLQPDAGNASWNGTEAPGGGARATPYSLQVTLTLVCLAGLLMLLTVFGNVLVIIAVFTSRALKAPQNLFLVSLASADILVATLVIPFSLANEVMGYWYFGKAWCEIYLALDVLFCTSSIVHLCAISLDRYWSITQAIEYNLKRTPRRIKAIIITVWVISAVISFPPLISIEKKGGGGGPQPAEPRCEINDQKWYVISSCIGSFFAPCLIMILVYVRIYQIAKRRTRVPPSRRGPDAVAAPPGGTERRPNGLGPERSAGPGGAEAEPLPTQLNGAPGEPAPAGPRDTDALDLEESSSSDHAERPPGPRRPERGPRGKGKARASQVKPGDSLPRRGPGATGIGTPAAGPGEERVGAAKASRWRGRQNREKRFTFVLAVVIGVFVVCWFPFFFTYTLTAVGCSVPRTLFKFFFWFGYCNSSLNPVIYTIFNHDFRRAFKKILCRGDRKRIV
Note: assay procedure not described here.

Sequence of Sodium-dependent serotonin transporter (P31645 whole entry): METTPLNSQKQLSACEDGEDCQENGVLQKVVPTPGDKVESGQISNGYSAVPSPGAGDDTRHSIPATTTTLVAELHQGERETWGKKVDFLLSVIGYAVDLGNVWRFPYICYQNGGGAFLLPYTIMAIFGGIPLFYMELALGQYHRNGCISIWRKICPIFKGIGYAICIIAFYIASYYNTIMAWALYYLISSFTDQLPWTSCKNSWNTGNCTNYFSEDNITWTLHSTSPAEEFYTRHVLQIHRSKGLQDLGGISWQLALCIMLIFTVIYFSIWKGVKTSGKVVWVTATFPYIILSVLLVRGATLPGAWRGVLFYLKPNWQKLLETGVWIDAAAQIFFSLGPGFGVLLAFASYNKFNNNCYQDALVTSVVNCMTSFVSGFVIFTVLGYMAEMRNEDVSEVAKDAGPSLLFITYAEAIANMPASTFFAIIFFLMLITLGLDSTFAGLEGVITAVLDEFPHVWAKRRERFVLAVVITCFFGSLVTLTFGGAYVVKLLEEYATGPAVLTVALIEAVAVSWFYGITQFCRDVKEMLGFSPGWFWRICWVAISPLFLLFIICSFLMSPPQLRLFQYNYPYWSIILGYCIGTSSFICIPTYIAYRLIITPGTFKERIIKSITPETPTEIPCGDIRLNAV
Sequence of D(1A) dopamine receptor (P21728 whole entry): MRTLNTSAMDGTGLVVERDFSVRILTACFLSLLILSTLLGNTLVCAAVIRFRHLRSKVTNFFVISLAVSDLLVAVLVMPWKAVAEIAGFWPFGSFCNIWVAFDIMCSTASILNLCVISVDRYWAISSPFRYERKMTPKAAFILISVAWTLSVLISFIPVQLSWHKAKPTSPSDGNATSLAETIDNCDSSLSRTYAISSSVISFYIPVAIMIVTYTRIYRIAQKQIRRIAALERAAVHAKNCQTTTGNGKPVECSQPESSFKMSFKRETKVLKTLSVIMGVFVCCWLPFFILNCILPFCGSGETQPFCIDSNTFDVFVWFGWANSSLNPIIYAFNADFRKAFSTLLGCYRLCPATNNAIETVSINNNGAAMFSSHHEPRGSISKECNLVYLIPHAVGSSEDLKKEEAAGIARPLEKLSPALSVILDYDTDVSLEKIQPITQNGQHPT
Sequence of Sodium-dependent noradrenaline transporter (P23975 whole entry): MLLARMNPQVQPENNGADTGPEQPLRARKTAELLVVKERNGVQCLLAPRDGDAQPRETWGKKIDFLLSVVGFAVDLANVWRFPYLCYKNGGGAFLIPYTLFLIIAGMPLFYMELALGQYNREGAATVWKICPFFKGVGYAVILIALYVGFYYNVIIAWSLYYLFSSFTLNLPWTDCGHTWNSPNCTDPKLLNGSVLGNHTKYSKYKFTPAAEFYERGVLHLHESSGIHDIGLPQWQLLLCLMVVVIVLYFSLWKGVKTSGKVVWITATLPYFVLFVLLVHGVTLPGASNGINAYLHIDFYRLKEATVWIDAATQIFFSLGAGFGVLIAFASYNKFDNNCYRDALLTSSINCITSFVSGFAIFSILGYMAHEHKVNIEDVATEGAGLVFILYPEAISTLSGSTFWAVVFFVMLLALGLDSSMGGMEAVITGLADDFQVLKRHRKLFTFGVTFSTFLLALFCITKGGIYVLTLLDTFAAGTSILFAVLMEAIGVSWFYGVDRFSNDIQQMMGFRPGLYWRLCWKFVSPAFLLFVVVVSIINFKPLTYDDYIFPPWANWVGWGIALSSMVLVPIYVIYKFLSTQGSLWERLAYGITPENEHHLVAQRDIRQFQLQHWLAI
Sequence of Histamine H3 receptor (Q9Y5N1 whole entry): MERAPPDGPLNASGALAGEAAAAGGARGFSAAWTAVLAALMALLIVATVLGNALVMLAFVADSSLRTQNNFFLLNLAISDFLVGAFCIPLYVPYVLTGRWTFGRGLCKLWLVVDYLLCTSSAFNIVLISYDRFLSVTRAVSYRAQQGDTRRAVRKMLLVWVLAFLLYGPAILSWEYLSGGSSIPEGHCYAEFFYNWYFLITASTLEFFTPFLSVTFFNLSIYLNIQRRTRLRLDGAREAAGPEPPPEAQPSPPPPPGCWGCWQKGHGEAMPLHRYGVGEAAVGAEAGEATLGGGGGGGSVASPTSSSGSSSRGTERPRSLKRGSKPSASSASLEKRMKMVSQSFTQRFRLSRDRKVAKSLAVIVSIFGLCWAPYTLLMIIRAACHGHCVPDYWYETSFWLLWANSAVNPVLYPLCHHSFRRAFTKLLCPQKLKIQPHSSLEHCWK

SMILES | AC50 [1] | AC50 [2] | AC50 [3] | AC50 [4] | AC50 [5] | AC50 [6] | AC50 [7] | AC50 [8] | AC50 [9]
Nc1nc(-n2cc(C(=O)O)c(=O)c3cc(F)c(N4CC(O)C4)c(Cl)c32)c(F)cc1F [DELAFLOXACIN] | > 30 µM | > 30 µM | > 30 µM | > 30 µM | > 30 µM | > 30 µM | > 30 µM | > 30 µM | > 30 µM
COc1ccc(-c2cc(=O)c3c(O)cc(O[C@@H]4O[C@H](CO[C@@H]5O[C@@H](C)[C@H](O)[C@@H](O)[C@H]5O)[C@@H](O)[C@H](O)[C@H]4O)cc3o2)cc1O [DIOSMIN] | > 30 µM | > 30 µM | > 30 µM | > 30 µM | > 30 µM | > 30 µM | > 30 µM | > 30 µM | > 30 µM
O=C(Nc1ccccc1)OCC(CN1CCCCC1)OC(=O)Nc1ccccc1 (stereo not drawn) [DIPERODON] | > 30 µM | > 30 µM | > 30 µM | > 30 µM | > 30 µM | > 30 µM | > 30 µM | > 30 µM | > 30 µM
CCOc1ccc(/C=C2\NCCc3cc(OCC)c(OCC)cc32)cc1OCC [DROTAVERINE] | > 30 µM | > 30 µM | > 30 µM | > 30 µM | > 30 µM | > 30 µM | 3 µM | 28.4 µM | 5.83 µM
CCOC(=O)C(c1c(O)c2ccccc2oc1=O)c1c(O)c2ccccc2oc1=O [ETHYL BISCOUMACETATE] | > 30 µM | > 30 µM | > 30 µM | > 30 µM | > 30 µM | > 30 µM | > 30 µM | > 30 µM | > 30 µM
Cc1nc(-c2ccc(OCC(C)C)c(C#N)c2)sc1C(=O)O [FEBUXOSTAT] | > 30 µM | > 30 µM | > 30 µM | > 30 µM | 16.1 µM | > 30 µM | > 30 µM | > 30 µM | > 30 µM
O=C1NCC2(CCN(CCc3ccccc3)CC2)O1 [FENSPIRIDE] | > 30 µM | > 30 µM | 20.8 µM | > 30 µM | > 30 µM | > 30 µM | > 30 µM | 16.4 µM | 8.2 µM
C[C@@H]1C[C@H]2[C@@H]3C[C@H](F)C4=CC(=O)C=C[C@]4(C)[C@@]3(F)[C@@H](O)C[C@]2(C)[C@@]1(O)C(=O)COC(=O)C(C)(C)C [FLUMETHASONE PIVALATE] | > 30 µM | > 30 µM | > 30 µM | > 30 µM | 5.85 µM | > 30 µM | > 30 µM | > 30 µM | > 30 µM
C[C@@H]1C[C@H]2[C@@H]3C[C@H](F)C4=CC(=O)C(Cl)=C[C@]4(C)[C@@]3(F)[C@@H](O)C[C@]2(C)[C@@]1(O)C(=O)CO [HALOMETASONE] | > 30 µM | > 30 µM | > 30 µM | > 30 µM | 7.72 µM | > 30 µM | > 30 µM | > 30 µM | > 30 µM
CC(C)Cc1ccc(C(C)C(=O)NO)cc1 (stereo not drawn) [IBUPROXAM] | > 30 µM | > 30 µM | > 30 µM | > 30 µM | > 30 µM | > 30 µM | > 30 µM | > 30 µM | > 30 µM
CC/C=C\C/C=C\C/C=C\C/C=C\C/C=C\CCCC(=O)O [ICOSAPENT] | > 30 µM | > 30 µM | > 30 µM | > 30 µM | > 30 µM | > 30 µM | > 30 µM | > 30 µM | > 30 µM
CS(=O)(=O)Nc1cc2occ(NC=O)c(=O)c2cc1Oc1ccccc1 [IGURATIMOD] | > 30 µM | > 30 µM | > 30 µM | > 30 µM | > 30 µM | > 30 µM | > 30 µM | > 30 µM | > 30 µM
CCC(Cc1c(I)cc(I)c(N)c1I)C(=O)O (stereo not drawn) [IOPANOIC ACID] | > 30 µM | > 30 µM | > 30 µM | > 30 µM | > 30 µM | > 30 µM | > 30 µM | > 30 µM | > 30 µM
O=C(NC1CCN(CCCCC2(C(=O)NCC(F)(F)F)c3ccccc3-c3ccccc32)CC1)c1ccccc1-c1ccc(C(F)(F)F)cc1 [LOMITAPIDE] | > 30 µM | > 30 µM | 1.49 µM | > 30 µM | > 30 µM | 2.2 µM | > 30 µM | 22.6 µM | 13.2 µM
CCN(CC)CCNc1ccc(C)c2sc3ccccc3c(=O)c12 [LUCANTHONE] | 10.5 µM | 17.9 µM | 6.04 µM | 0.523 µM | > 30 µM | 2.68 µM | 6.25 µM | 2.36 µM | 5.65 µM
CCOC(=O)CC(SP(=S)(OC)OC)C(=O)OCC (stereo not drawn) [MALATHION] | > 30 µM | > 30 µM | > 30 µM | > 30 µM | > 30 µM | > 30 µM | > 30 µM | > 30 µM | > 30 µM
CCC1(c2cccc(O)c2)CCCCN(C)C1 (stereo not drawn) [MEPTAZINOL] | > 30 µM | > 30 µM | > 30 µM | > 30 µM | > 30 µM | > 30 µM | 13.5 µM | 20.9 µM | > 30 µM

— ChEMBL document CHEMBL5291721, “A preclinical secondary pharmacology resource illuminates target-adverse drug reaction associations of marketed drugs” (Nat Commun, 2023)
